Measurements as given in patent US20060247244A1, “Quinoxalinones and their use especially in the treatment of cardiovascular diseases” (BAYER HEALTHCARE AG, priority 2002, published 2006).

Target: T1, human M2 acetylcholine receptor (M2AChR) (Homo sapiens, UniProt P08172)
T1 construct: expressed in transfected cells; host or cells: CHO K1 (Chinese hamster ovary) cells constitutively expressing mitochondrially targeted aequorin and stably transfected with Galpha16
T1 sequence (P08172 1-466): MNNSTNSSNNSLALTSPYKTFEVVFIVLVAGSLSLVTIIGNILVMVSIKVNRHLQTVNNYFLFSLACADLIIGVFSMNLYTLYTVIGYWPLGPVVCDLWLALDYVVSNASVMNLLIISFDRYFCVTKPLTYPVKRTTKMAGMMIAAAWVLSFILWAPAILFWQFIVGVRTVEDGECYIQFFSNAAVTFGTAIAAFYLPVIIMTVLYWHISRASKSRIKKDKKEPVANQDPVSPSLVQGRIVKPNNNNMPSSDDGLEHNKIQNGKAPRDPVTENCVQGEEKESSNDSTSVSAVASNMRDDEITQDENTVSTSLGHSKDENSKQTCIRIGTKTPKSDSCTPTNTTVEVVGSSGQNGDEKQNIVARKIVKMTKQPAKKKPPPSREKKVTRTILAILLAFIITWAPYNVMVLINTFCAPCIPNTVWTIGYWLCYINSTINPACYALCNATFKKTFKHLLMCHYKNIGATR
Assay: Cellular functional in vitro test (aequorin luminescence in recombinant CHO K1 cells)
Format: cell-based
Details: agonist activity; CHO K1 cells expressing human M2AChR, aequorin and Gα16; luminescence readout
Text: A recombinant cell line was used to identify agonists of the human M2 acetylcholine receptor (M2A ChR) and to quantify the activity of the substances described herein. The cell is originally derived from a hamster ovary epithelial cell (Chinese Hamster Ovary, CHO K1, ATCC: American Type Culture Collection, Manassas, Va. 20108, USA). The test cell line constitutively expresses a modified form of the calcium-sensitive photoprotein aequorin which after reconstitution with the cofactor coelenterazine emits light when the free calcium concentration in the inner mitochondrial compartment is increased (Rizzuto R. Simpson A W, Brini M, Pozzan T.; Nature 358 (1992) 325-327). The cell is additionally stably transfected with the human M2AChR (Peralta E G, Ashkenazi A, Winslow J W, Smith D H, Ramachandran J, Capon, D J, EMBO Journal 6 (1987) 3923-3929) and with the gene which codes for the promiscuous Gα16 protein (Amatruda T T, Steele D A, Slepak V Z, Simon M I, Proceedings in the National Academy of Science USA 88 (1991), 5587-5591). The resulting M2AChR test cell responds to stimulation of the recombinant M2ACh receptor with an intracellular release of calcium ions, which can be quantified through the resulting aequorin luminescence with a suitable luminometer (Milligan G, Marshall F, Rees S, Trends in Pharmacological Sciences 17 (1996) 235-237).
Test procedure: The cells are plated out on the day before the test in culture medium (DMEM, 10% FCS, 2 mM glutamine, 10 mM HEPES; Gibco Cat.#21331-020; now belongs to: Invitrogen GmbH, 76131 Karlsruhe) in 384 (or 1536) well microtiter plates and kept in a cell incubator (96% humidity, 5% v/v CO2, 37° C.). On the day of the test, the culture medium is replaced by a Tyrode solution (in mM: 140 NaCl, 5 KCl, 1 MgCl2, 2 CaCl2, 20 glucose, 20 HEPES) which additionally contains the cofactor coelenterazine (50 μM), and the microtiter plate is then incubated for a further 3-4 hours. Immediately after the test substances have been transferred into the wells of the microtiter plate, the resulting light signal is measured in the luminometer.

| Molecule | EC50 |
| --- | --- |
| CC(NC(=O)c1ccc2c(c1)N(C(=O)CNC1CCCCC1)CC(=O)N2C1CC1)c1cccnc1 (stereo not shown) [Example 5, 4-(N-Cyclohexylglycyl)-1-cyclopropyl-2-oxo-N-[1-(3-pyridinyl)ethyl]-1,2,3,4-tetrahydro-6-quinoxalinecarboxamide] | 0.037 µM |
| C[C@H](NC(=O)c1ccc2c(c1)N(C(=O)CN[C@@H](C)C(C)(C)C)CC(=O)N2C1CC1)c1ccncc1 [Example 24] | 0.032 µM |
| O=C(NCc1ccsc1)c1ccc2c(c1)N(C(=O)CNC1CCCCC1)CC(=O)N2C1CC1 [Example 12, 4-(N-Cyclohexylglycyl)-1-cyclopropyl-2-oxo-N-(3-thienylmethyl)-1,2,3,4-tetrahydro-6-quinoxalinecarboxamide] | 1.8 µM |
| 4-N-[(1-S-Methyl-(2-methylbutyl)glycyl]-1-cyclopropyl-2-oxo-N-[1-S-(4-pyridinyl)-ethyl]-1,2,3,4-tetrahydro-6-quinoxalinecarboxamide [Example 25] | 0.006 µM |
| CC1CCCC(NCC(=O)N2CC(=O)N(C3CC3)c3ccc(C(=O)NC(C)c4cccnc4)cc32)C1 (stereo not shown) [Example 11, 1-Cyclopropyl-4-[N-(3-methylcyclohexyl)glycyl]-2-oxo-N-[1-(3-pyridinyl)ethyl]-1,2,3,4-tetrahydro-6-quinoxalinecarboxamide] | 0.32 µM |
| CC(NC(=O)c1ccc2c(c1)N(C(=O)CNC1CCC1)CC(=O)N2C1CC1)c1cccnc1 (stereo not shown) [Example 2, 4-(N-Cyclobutylglycyl)-1-cyclopropyl-2-oxo-N-[1-(3-pyridinyl)ethyl]-1,2,3,4-tetra-hydro-6-quinoxalinecarboxamide] | 1 µM |
| C[C@H](NC(=O)c1ccc2c(c1)N(C(=O)CNCC(C)(C)C)CC(=O)N2C1CC1)c1ccncc1 [Example 23] | 0.018 µM |

Continued by falling EC50, values first:

| EC50 | Molecule |
| --- | --- |
| 0.15 µM | C[C@H](NC(=O)c1ccc2c(c1)N(C(=O)CN[C@H]1CC[C@H](O)CC1)CC(=O)N2C1CC1)c1ccncc1 [Example 22, 4-N-[(trans-4-Cyclohexanoyl)glycyl]-1-cyclopropyl-2-oxo-N-[1-S-(4-pyridinyl)-ethyl]-1,2,3,4-tetrahydro-6-quinoxalinecarboxamide] |
| 0.016 µM | 4-N-[(1-S-Methyl-(2-methylbutyl)glycyl]-1-cyclopropyl-2-oxo-N-[(3-pyridinyl-4-methoxy)ethyl]-1,2,3,4-tetrahydro-6-quinoxalinecarboxamide [Example 26] |
| 0.005 µM | CC(NC(=O)c1ccc2c(c1)N(C(=O)CNC1CCCCC1)CC(=O)N2C1CC1)c1ccncc1 (single isomer, unassigned; (+)) [Example 7, (+)-4-(N-Cyclohexylglycyl)-1-cyclopropyl-2-oxo-N-[1-(4-pyridinyl)ethyl]-1,2,3,4-tetrahydro-6-quinoxalinecarboxamide] |
